Measurements published in patent US9226916B2, “Pyrrolidine derivatives” (HOFFMANN-LA ROCHE INC., priority 2009, dated 2016).

Biological target: T1, recombinant human NK3 receptor (Homo sapiens, UniProt P29371)
T1 construct: expressed in transfected cells; host or cells: HEK293 cells, transient expression; membranes
T1 sequence (P29371 1-465): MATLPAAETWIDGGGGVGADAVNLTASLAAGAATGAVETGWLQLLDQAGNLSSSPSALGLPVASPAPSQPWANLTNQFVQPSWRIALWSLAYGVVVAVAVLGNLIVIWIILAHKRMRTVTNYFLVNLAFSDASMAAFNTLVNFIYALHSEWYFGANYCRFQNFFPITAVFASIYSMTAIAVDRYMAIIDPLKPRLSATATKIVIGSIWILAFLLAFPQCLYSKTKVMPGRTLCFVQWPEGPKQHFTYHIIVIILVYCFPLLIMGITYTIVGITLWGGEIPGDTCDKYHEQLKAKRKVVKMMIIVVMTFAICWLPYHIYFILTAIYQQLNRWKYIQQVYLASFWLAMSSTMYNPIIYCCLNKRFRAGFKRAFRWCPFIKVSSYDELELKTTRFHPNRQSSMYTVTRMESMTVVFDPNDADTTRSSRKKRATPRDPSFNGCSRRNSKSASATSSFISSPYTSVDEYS
Experiment: [3H]SR142801 competition binding assay

Row | SMILES | Ki
1 | CN(C(=O)Oc1ccc(F)cc1)[C@@H]1CN(C(=O)C2CCN(C(=O)C3(C#N)CC3)CC2)C[C@H]1c1ccc(Cl)c(Cl)c1 [Example 272, [(3S,4R)-1-[1-(1-Cyano-cyclopropanecarbonyl)-piperidine-4-carbonyl]-4-(3,4-dichloro-phenyl)-pyrrolidin-3-yl]-methyl-carbamic acid 4-fluoro-phenyl ester] | 0.8 nM
2 | CN(C(=O)Oc1ccc(F)cc1)[C@@H]1CN(C(=O)C2CCN(C(=O)C3(C(F)(F)F)CC3)CC2)C[C@H]1c1ccc(Cl)c(Cl)c1 [Example 273, {(3S,4R)-4-(3,4-Dichloro-phenyl)-1-[1-(1-trifluoromethyl-cyclopropanecarbonyl)-piperidine-4-carbonyl]-pyrrolidin-3-yl}-methyl-carbamic acid 4-fluoro-phenyl ester] | 0.4 nM
3 | CN(C(=O)Oc1ccc(F)cc1)[C@@H]1CN(C(=O)C2CCN(C(=O)C3CC3(F)F)CC2)C[C@H]1c1ccc(Cl)c(Cl)c1 (stereo partly drawn) [Example 274, {(3S,4R)-4-(3,4-Dichloro-phenyl)-1-[1-(2,2-difluoro-cyclopropanecarbonyl)-piperidine-4-carbonyl]-pyrrolidin-3-yl}-methyl-carbamic acid 4-fluoro-phenyl ester] | 0.9 nM
4 | CN(C(=O)Oc1ccc(F)cc1)[C@@H]1CN(C(=O)C2CCN(C(=O)C3CCOCC3)CC2)C[C@H]1c1ccc(Cl)c(Cl)c1 [Example 275, {(3S,4R)-4-(3,4-Dichloro-phenyl)-1-[1-(tetrahydro-pyran-4-carbonyl)-piperidine-4-carbonyl]-pyrrolidin-3-yl}-methyl-carbamic acid 4-fluoro-phenyl ester] | 0.9 nM
5 | CN(C(=O)Oc1ccc(F)cc1)[C@@H]1CN(C(=O)C2CCN(C(=O)C3CCOC(C)(C)C3)CC2)C[C@H]1c1ccc(Cl)c(Cl)c1 (stereo partly drawn) [Example 276, {(3S,4R)-4-(3,4-Dichloro-phenyl)-1-[1-(2,2-dimethyl-tetrahydro-pyran-4-carbonyl)-piperidine-4-carbonyl]-pyrrolidin-3-yl}-methyl-carbamic acid 4-fluoro-phenyl ester] | 1 nM
6 | COCC1(C(=O)N2CCC(C(=O)N3C[C@@H](N(C)C(=O)Oc4ccc(F)cc4)[C@H](c4ccc(Cl)c(Cl)c4)C3)CC2)CC1 [Example 277, {(3S,4R)-4-(3,4-Dichloro-phenyl)-1-[1-(1-methoxymethyl-cyclopropanecarbonyl)-piperidine-4-carbonyl]-pyrrolidin-3-yl}-methyl-carbamic acid 4-fluoro-phenyl ester] | 0.5 nM
7 | CN(C(=O)Oc1ccc(F)cc1)[C@@H]1CN(C(=O)C2CCN(C(=O)C3CC3(C)C)CC2)C[C@H]1c1ccc(Cl)c(Cl)c1 (stereo partly drawn) [Example 278, {(3S,4R)-4-(3,4-Dichloro-phenyl)-1-[1-(2,2-dimethyl-cyclopropanecarbonyl)-piperidine-4-carbonyl]-pyrrolidin-3-yl}-methyl-carbamic acid 4-fluoro-phenyl ester] | 0.6 nM
8 | CN(C(=O)Oc1ccc(F)cc1)[C@@H]1CN(C(=O)C2CCN(C(=O)c3ccc(C(F)(F)F)cn3)CC2)C[C@H]1c1ccc(Cl)c(Cl)c1 [Example 279, {(3S,4R)-4-(3,4-Dichloro-phenyl)-1-[1-(5-trifluoromethyl-pyridine-2-carbonyl)-piperidine-4-carbonyl]-pyrrolidin-3-yl}-methyl-carbamic acid 4-fluoro-phenyl ester] | 2 nM
9 | CN(C(=O)Oc1ccc(F)cc1)[C@@H]1CN(C(=O)C2CCN(C(=O)c3ccc(F)cn3)CC2)C[C@H]1c1ccc(Cl)c(Cl)c1 [Example 280, {(3S,4R)-4-(3,4-Dichloro-phenyl)-1-[1-(5-fluoro-pyridine-2-carbonyl)-piperidine-4-carbonyl]-pyrrolidin-3-yl}-methyl-carbamic acid 4-fluoro-phenyl ester] | 0.8 nM
10 | CN(C(=O)Oc1ccc(F)cc1)[C@@H]1CN(C(=O)C2CCN(C(=O)C3CCC(=O)NC3)CC2)C[C@H]1c1ccc(Cl)c(Cl)c1 (stereo partly drawn) [Example 281, {(3S,4R)-4-(3,4-Dichloro-phenyl)-1-[1-(6-oxo-piperidine-3-carbonyl)-piperidine-4-carbonyl]-pyrrolidin-3-yl}-methyl-carbamic acid 4-fluoro-phenyl ester] | 0.3 nM
11 | CC(C)N1CC(C(=O)N2CCC(C(=O)N3C[C@@H](N(C)C(=O)Oc4ccc(F)cc4)[C@H](c4ccc(Cl)c(Cl)c4)C3)CC2)CCC1=O (stereo partly drawn) [Example 282, {(3S,4R)-4-(3,4-Dichloro-phenyl)-1-[1-(1-isopropyl-6-oxo-piperidine-3-carbonyl)-piperidine-4-carbonyl]-pyrrolidin-3-yl}-methyl-carbamic acid 4-fluoro-phenyl ester] | 2 nM
12 | CC(=O)N1CCC(C(=O)N2C[C@@H](N(C)C(=O)Oc3ccc(F)cc3)[C@H](c3ccc(Cl)c(Cl)c3)C2)CC1 [Example 283, [(3S,4R)-1-(1-Acetyl-piperidine-4-carbonyl)-4-(3,4-dichloro-phenyl)-pyrrolidin-3-yl]-methyl-carbamic acid 4-fluoro-phenyl ester] | 0.7 nM
13 | CN(C(=O)Oc1ccc(F)cc1)[C@@H]1CN(C(=O)C2CCN(C(=O)CC#N)CC2)C[C@H]1c1ccc(F)cc1 [Example 284, [(3S,4R)-1-[1-(2-Cyano-acetyl)-piperidine-4-carbonyl]-4-(4-fluoro-phenyl)-pyrrolidin-3-yl]-methyl-carbamic acid 4-fluoro-phenyl ester] | 31.1 nM
14 | CC(=O)N1CCC(C(=O)N2C[C@@H](N(C)C(=O)Oc3ccc(F)cc3)[C@H](c3ccc(F)cc3)C2)CC1 [Example 285, [(3S,4R)-1-(1-Acetyl-piperidine-4-carbonyl)-4-(4-fluoro-phenyl)-pyrrolidin-3-yl]-methyl-carbamic acid 4-fluoro-phenyl ester] | 19.1 nM
15 | CN(C(=O)Oc1ccc(F)cc1)[C@@H]1CN(C(=O)C2CCN(C(=O)C3(C)COC3)CC2)C[C@H]1c1ccc(F)cc1 [Example 286, {(3S,4R)-4-(4-Fluoro-phenyl)-1-[1-(3-methyl-oxetane-3-carbonyl)-piperidine-4-carbonyl]-pyrrolidin-3-yl}-methyl-carbamic acid 4-fluoro-phenyl ester] | 25.4 nM
16 | CN(C(=O)Oc1ccc(F)cc1)[C@@H]1CN(C(=O)C2CCN(C(=O)C3CC(F)C3)CC2)C[C@H]1c1ccc(F)cc1 (stereo partly drawn) [Example 287, [(3S,4R)-1-[1-(3-Fluoro-cyclobutanecarbonyl)-piperidine-4-carbonyl]-4-(4-fluoro-phenyl)-pyrrolidin-3-yl]-methyl-carbamic acid 4-fluoro-phenyl ester] | 7.2 nM
17 | CN(C(=O)Oc1ccc(F)cc1)[C@@H]1CN(C(=O)C2CCN(C(=O)C3(C#N)CC3)CC2)C[C@H]1c1ccc(F)cc1 [Example 288, [(3S,4R)-1-[1-(1-Cyano-cyclopropanecarbonyl)-piperidine-4-carbonyl]-4-(4-fluoro-phenyl)-pyrrolidin-3-yl]-methyl-carbamic acid 4-fluoro-phenyl ester] | 26.6 nM
18 | CN(C(=O)Oc1ccc(F)cc1)[C@@H]1CN(C(=O)C2CCN(C(=O)C3(C(F)(F)F)CCC3)CC2)C[C@H]1c1ccc(F)cc1 [Example 289, {(3S,4R)-4-(4-Fluoro-phenyl)-1-[1-(1-trifluoromethyl-cyclobutanecarbonyl)-piperidine-4-carbonyl]-pyrrolidin-3-yl}-methyl-carbamic acid 4-fluoro-phenyl ester] | 11 nM
19 | CN(C(=O)Oc1ccc(F)cc1)[C@@H]1CN(C(=O)C2CCN(C(=O)c3ccc(C(F)(F)F)cn3)CC2)C[C@H]1c1ccc(F)cc1 [Example 290, {(3S,4R)-4-(4-Fluoro-phenyl)-1-[1-(5-trifluoromethyl-pyridine-2-carbonyl)-piperidine-4-carbonyl]-pyrrolidin-3-yl}-methyl-carbamic acid 4-fluoro-phenyl ester] | 99.8 nM
20 | CN(C(=O)Oc1ccc(F)cc1)[C@@H]1CN(C(=O)C2CCN(C(=O)C3CCC(=O)NC3)CC2)C[C@H]1c1ccc(F)cc1 (stereo partly drawn) [Example 291, {(3S,4R)-4-(4-Fluoro-phenyl)-1-[1-(6-oxo-piperidine-3-carbonyl)-piperidine-4-carbonyl]-pyrrolidin-3-yl}-methyl-carbamic acid 4-fluoro-phenyl ester] | 144 nM
21 | CN(C(=O)Oc1ccc(F)cc1)[C@@H]1CN(C(=O)C2CCN(C(=O)[C@@H]3CC(=O)N3)CC2)C[C@H]1c1ccc(Cl)c(Cl)c1 [Example 292, {(3S,4R)-4-(3,4-Dichloro-phenyl)-1-[1-((S)-4-oxo-azetidine-2-carbonyl)-piperidine-4-carbonyl]-pyrrolidin-3-yl}-methyl-carbamic acid 4-fluoro-phenyl ester] | 0.04 nM
22 | Cc1cc(OC(=O)N(C)[C@@H]2CN(C(=O)C3CCN(C(=O)C4(C)CC4)CC3)C[C@H]2c2ccc(Cl)c(Cl)c2)cc(C)n1 [Example 294, {(3S,4R)-4-(3,4-Dichloro-phenyl)-1-[1-(1-methyl-cyclopropanecarbonyl)-piperidine-4-carbonyl]-pyrrolidin-3-yl}-methyl-carbamic acid 2,6-dimethyl-pyridin-4-yl ester] | 11.2 nM
23 | CN(C(=O)Oc1ccncc1)[C@@H]1CN(C(=O)C2CCN(C(=O)C3(C)CC3)CC2)C[C@H]1c1ccc(Cl)c(Cl)c1 [Example 297, {(3S,4R)-4-(3,4-Dichloro-phenyl)-1-[1-(1-methyl-cyclopropanecarbonyl)-piperidine-4-carbonyl]-pyrrolidin-3-yl}-methyl-carbamic acid pyridin-4-yl ester] | 5.9 nM
